What follows are molecules tested against human GSK-3β (Homo sapiens, UniProt P49841) (assay: GSK-3β enzyme inhibition (32P-ATP, phospho-CREB peptide, filter paper)). Settings: 100 μM ATP, 30° C., 1 hour.
Format: biochemical
Method: GSK-3β was prepared by a gene recombination method.
First, primers corresponding to 5′-end and 3′-end of polynucleotide encoding human GSK-3β were designed and synthesized from nucleotide sequence of human GSK-3β (GenBank Reg. No. L33801). Then, the primers were amplified by PCR (polymerase chain reaction) in which a human DNA sequence was employed as a template and treated with restriction enzyme BamH1/XhoI. The resulting gene fragments were inserted into the corresponding identical restriction sites of pGex vector (GE Healthcare Life Science) to prepare an expression vector for transformation of E. coli BL21 (DE3) strain (Invitrogen). The transformed E. coli strain was inoculated to LB medium (1% Bacto tryptone, 0.5% yeast extract, 1% sodium chloride) and cultured until the optical density of the bacterial cells was about 0.5 at 600 nm and 37° C. Then, IPTG (isopropyl-β-D-thiogalactoside) was added thereto to a final concentration to 0.5 mM at 18° C. 16 hours after IPTG addition, the cells were subjected to centrifugation at 10,000×g for 10 mins and cell precipitates were collected. The cell precipitates were suspended in a buffer solution (30 mM tris-HCl (pH 7.5), 100 mM NaCl, 5% glycerol, 2 mM DTT) and the cells were smashed in an ice bath using a Sonic Dismembrator (Fisher, USA). The resulting solution was centrifuged at 16,000 rpm for 30 mins.
The supernatant obtained above was introduced to a pre-equilibrated GST column (Pharmacia, USA) and eluted by 5 mM glutachione. The effuent was subjected to SDS-PAGE and GSK-3β protein was collected. GST protein was cutt using thrombin. The GSK-3β protein thus obtained was diluted with a buffer solution (20 mM HEPES (pH 7.5), 5% glycerol, 2 mM DTT) until the concentration of NaCl reached 50 mM. The diluted solution was introduced to Mono S column (Pharmacia, USA) equilibrated with the above buffer solution and eluted with a aqueous NaCl while changing the concentration from 0 to 1 M NaCl, and GSK-3β protein was collected by a electrophoresis. The purified protein was used in the analysis for the activity for enzyme activity.
The enzyme reaction was conducted in a buffer solution (50 mM of tris-HCl (pH 7.5), 10 mM of MgCl2, 1 mM of EGTA, 1 mM of EDTA and 1 mM of DTT). 100 μM of phosho-CREB peptide (NEB, USA), 100 μM of ATP and 1 μCi of ^32P-ATP were added to the buffer solution as substrates. And then 100 nM of recombinant GSK-3β was added thereto and the mixture was reacted at 30° C. for 1 hour. The reaction was terminated by the addition of 5 μl of 5% phosphoric acid solution to 25 μl of the reaction mixture. The resulting solution was subjected to centrifugation at 15,000 for 10 mins and 20 μl of the supernatant thus obtained was dropped on whatman p81 filter paper. The filter paper was washed in 0.5% phosphoric acid solution for 10 mins. After repeating the washing 3 times, the filter paper was dried and its cpm (counter per mins) was assessed.
The test solution prepared above by dissolving a test compound in DMSO was added to the reaction solution in an amount of less than 5% based on the total reaction solution to analyze the capacity for enzyme inhibitory activity.

Chain of human GSK-3β (P49841 whole entry): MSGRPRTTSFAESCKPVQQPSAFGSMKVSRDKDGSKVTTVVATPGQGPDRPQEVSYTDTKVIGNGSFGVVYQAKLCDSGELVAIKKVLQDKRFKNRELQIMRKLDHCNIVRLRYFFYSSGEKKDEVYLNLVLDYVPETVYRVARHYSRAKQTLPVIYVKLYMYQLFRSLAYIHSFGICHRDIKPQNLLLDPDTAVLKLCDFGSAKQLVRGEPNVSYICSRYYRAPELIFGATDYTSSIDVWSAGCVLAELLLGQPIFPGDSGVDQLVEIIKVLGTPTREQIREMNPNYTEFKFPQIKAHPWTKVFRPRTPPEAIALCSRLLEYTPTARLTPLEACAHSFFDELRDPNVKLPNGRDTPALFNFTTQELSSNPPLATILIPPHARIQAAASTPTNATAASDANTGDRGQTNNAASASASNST

Row | SMILES | IC50
1 | CN1CCN(c2ccc(-c3nc4c(C(=O)Nc5cccnc5)ccnc4[nH]3)cc2)CC1 [Example 327, 2-[4-(4-methyl-piperazin-1-yl)-phenyl]-3H-imidazo[4,5-b]pyridine-7-carboxylic acid pyridin-3-ylamide] | 50 nM
2 | Cc1ccncc1NC(=O)c1ccnc2[nH]c(-c3ccc(N4CCCC4)cc3)nc12 [Example 332, 2-(4-pyrrolidin-1-yl-phenyl)-3H-imidazo[4,5-b]pyridine-7-carboxylic acid(4-methyl-pyridin-3-yl)-amide] | 12 nM
3 | CCOc1ccncc1NC(=O)c1ccnc2[nH]c(-c3ccc(N4CCCC4)cc3)nc12 [Example 404, 2-(4-pyrrolidin-1-yl-phenyl)-3H-imidazo[4,5-b]pyridine-7-carboxylic acid(4-ethoxy-pyridin-3-yl)-amide] | 3 nM
4 | O=C(NCCCc1ccncc1)c1ccnc2[nH]c(-c3cccs3)nc12 [Example 109, 2-thiophen-2-yl-3H-imidazo[4,5-b]pyridine-7-carboxylic acid(3-pyridin-4-yl-propyl)-amide] | 52 nM
5 | CCOc1cc(C)ncc1NC(=O)c1ccnc2[nH]c(-c3ccc(F)cc3)nc12 [Example 325, 2-(4-fluoro-phenyl)-3H-imidazo[4,5-b]pyridine-7-carboxylic acid(4-ethoxy-6-methyl-pyridin-3-yl)-amide] | 2 nM
6 | CC(=O)Nc1ccc(CCNC(=O)c2ccnc3[nH]c(-c4ccc(Cl)cc4)nc23)cc1 [Example 44, 2-(4-chloro-phenyl)-3H-imidazo[4,5-b]pyridine-7-carboxylic acid[2-(4-acetylamino-phenyl)-ethyl]-amide] | 38 nM
7 | CC(=O)Nc1ccc(CCNC(=O)c2ccnc3[nH]c(-c4ccccc4)nc23)cc1 [Example 1, 2-phenyl-3H-imidazo[4,5-b]-pyridine-7-carboxylic acid [2-(4-acetylamino-phenyl)-ethyl]-amide] | 20 nM
8 | CCSc1ccncc1NC(=O)c1ccnc2[nH]c(-c3ccc(Cl)cc3)nc12 [Example 61, 2-(4-chloro-phenyl)-3H-imidazo[4,5-b]pyridine-7-carboxylic acid(4-ethylsulfanyl-pyridin-3-yl)-amide] | 3 nM

The molecules below were run against T1, Aurora Kinase A (Homo sapiens, UniProt O14965) (assay: Aurora kinase A enzyme inhibition (Kemptide, Kinase glo)). Settings: 1 μM ATP.
T1 construct: purchased Upstate
T1 sequence (O14965 1-403): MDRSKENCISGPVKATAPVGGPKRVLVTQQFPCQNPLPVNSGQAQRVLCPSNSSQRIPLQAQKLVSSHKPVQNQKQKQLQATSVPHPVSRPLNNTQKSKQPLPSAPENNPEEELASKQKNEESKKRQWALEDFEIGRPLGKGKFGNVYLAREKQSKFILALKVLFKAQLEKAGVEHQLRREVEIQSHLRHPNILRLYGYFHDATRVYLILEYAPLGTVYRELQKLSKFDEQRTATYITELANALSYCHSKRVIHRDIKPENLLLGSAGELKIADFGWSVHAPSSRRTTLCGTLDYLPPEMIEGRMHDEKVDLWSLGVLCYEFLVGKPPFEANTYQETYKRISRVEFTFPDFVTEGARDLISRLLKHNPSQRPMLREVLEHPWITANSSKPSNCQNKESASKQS
Format: biochemical
Method: The test solution prepared above by dissolving a test compound in DMSO was added to the reaction solution in an amount of less than 5% based on the total reaction solution to analyze the capacity for enzyme inhibitory activity. The cpm value obtained when the test compounds was present relative to the cpm value in the absence of the test compound was represented by percentage, and IC50 (μM) was determined as the concentration of the test compound required to inhibit the enzyme activity by 50% relatively to the control solution.
A test solution was prepared by dissolving one of the compounds of the Examples in DMSO at a concentration of 12.5 mM. Enzyme reaction was conducted in a buffer solution containing 20 mM of HEPES (pH 7.5), 5 mM MgCl2, 0.5 mM ethylene glycol bis(b-aminoethylether) tetraacetic acid (EGTA), 200 mM of KCl, 1 mM of DTT and 0.05% triton X-100. 100 μM of Kemptide peptide (Upstate) and 1 μM of ATP were added to the buffer solution as substrates. Recombinant aurora kinase (Upstate) was added the resulting mixture at a concentration of 10 nM and reaction was carried out at 30° C. for 1 hour. 25 μl of the resulting solution was mixed with 25 μl of Kinase glo (promega), thereby inducing the second reaction by luciferase. The amount of remained ATP was measured by fusion a-FP (Packard, USA). Inhibitory capacities of the test compounds for the enzyme activity were assessed according to the same method as in GSK-3β analysis, and IC50 value was calculated.

Row | SMILES | IC50
9 | O=C(NC1C2CC3CC(C2)CC1C3)c1ccnc2[nH]c(-c3ccc(F)cc3)nc12 (centres unmarked) [Example 264, 2-(4-fluoro-phenyl)-3H-imidazo[4,5-b]pyridine-7-carboxylic acid adamantan-2-ylamide] | 70 nM
10 | CCN(CC)C1CCN(c2ccc(-c3nc4c(C(=O)Nc5ccc(C)nc5)ccnc4[nH]3)cc2)C1 (centres unmarked) [Example 409, 2-[4-(3-diethylamino-pyrrolidin-1-yl)-phenyl]-3H-imidazo[4,5-b]pyridine-7-carboxylic acid(6-methyl-pyridin-3-yl)-amide] | 250 nM
11 | CCC(C)(C)NC(=O)c1ccnc2[nH]c(-c3ccc(NCCN(C)C)cc3)nc12 [Example 381, 2-[4-(2-dimethylamino-ethylamino)-phenyl]-3H-imidazo[4,5-b]pyridine-7-carboxylic acid(1,1-dimethyl-propyl)-amide] | 33 nM
12 | CCOc1cc(C)ncc1NC(=O)c1ccnc2[nH]c(-c3ccc(N4CCN(C)CC4)cc3)nc12 [Example 423, 2-[4-(4-methyl-piperazin-1-yl)-phenyl]-3H-imidazo[4,5-b]pyridine-7-carboxylic acid(4-ethoxy-6-methyl-pyridin-3-yl)-amide] | 105 nM
13 | CCSc1ccncc1NC(=O)c1ccnc2[nH]c(-c3ccc(N4CCN(C)CC4)cc3)nc12 [Example 418, 2-[4-(4-methyl-piperazin-1-yl)-phenyl]-3H-imidazo[4,5-b]pyridine-7-carboxylic acid(4-ethylsulfanyl-pyridin-3-yl)-amide] | 200 nM
14 | CCOc1ccncc1NC(=O)c1ccnc2[nH]c(-c3ccc(OC)cc3)nc12 [Example 425, 2-(4-methoxy-phenyl)-3H-imidazo[4,5-b]pyridine-7-carboxylic acid(4-ethoxy-pyridin-3-yl)-amide] | > 6000 nM
15 | CC1(C)C2CC[C@@]1(C)[C@@H](NC(=O)c1ccnc3[nH]c(-c4ccc(NCCN5CCOCC5)cc4)nc13)C2 [Example 368, 2-[4-(2-morpholin-4-yl-ethylamino)-phenyl]-3H-imidazo[4,5-b]pyridine-7-carboxylic acid(1,7,7-trimethyl-bicyclo[2.2.1]heptin-2-yl)-amide] | 40 nM
16 | CN(C)CCOc1ccncc1NC(=O)c1ccnc2[nH]c(-c3ccc(F)cc3)nc12 [Example 313, 2-(4-fluoro-phenyl)-3H-imidazo[4,5-b]pyridine-7-carboxylic acid[4-(2-dimethylamino-ethoxy)-pyridin-3-yl]-amide] | 1100 nM
17 | CN1CCN(c2ccc(-c3nc4c(C(=O)NC5CC6CCC5C6)ccnc4[nH]3)cc2)CC1 (centres unmarked) [Example 371, 2-[4-(4-methyl-piperazin-1-yl)-phenyl]-3H-imidazo[4,5-b]pyridine-7-carboxylic acid bicyclo[2.2.1]heptin-2-ylamide] | 113 nM
